Test results: the supplement of paper PMC5412046
Counter-ions that a name gives are not always drawn.

What was measured:
SB.msgc-1 = assay: AC50 for growth inhibition (viability) (log10 M); higher = less potent; conditions: SB.msgc-1 (sporadic gastric cancer)
Outline: (§1)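 Gastric cancer cells derived from patients with hereditary or sporadic disease were seeded at 500 cells in 5 μL medium per 1536 well. A pintool delivered 23 nL of compound in DMSO, as 11 threefold dilutions from a final 46 μM. After 48 h, CellTiter-Glo was added for 30 min at room temperature and luminescence was read on a ViewLux. The log half-maximal activity concentration was taken from a four-parameter fit of viability normalised to DMSO, using only high-quality curve classes.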

SB.mhdgc-1 = assay: as above; conditions: SB.mhdgc-1 (hereditary c.1380delA CDH1 gastric cancer)
Outline: as §1

Compound	AC50 for growth inhibition (log10 M) (SB.msgc-1)	AC50 for growth inhibition (log10 M) (SB.mhdgc-1)
O=C(OC)[C@]12CC[C@@]3(C)[C@]4(C)CC[C@H]5[C@@](C)(C)C(=O)C(=C[C@]5(C)C4=CC(=O)[C@@H]3[C@@H]2C[C@](C)(C)CC1)C#N [Bardoxolone methyl]	-6.33	-6.28
CCCCc1nc2cc(/C=C/C(=O)NO)ccc2n1CCN(CC)CC [Pracinostat]	-6.88	-5.33
CC(C(=O)O)c1ccc2c(c1)CC(=O)c1ccccc1S2 (stereo not given) [Zaltoprofen]	-5.13	-5.43
OC[C@H]1O[C@H](C[C@@H]1O)N2/C=C(C(=O)NC2=O)/C(F)(F)F [Trifluridine]	-5.78	-6.48
CCC(CCCC)COC(=O)C(\C#N)=C(\c1ccccc1)c2ccccc2 (stereo not given) [Octocrylene]	-4.88	-4.88
Cc1cc(Nc2cc(NC(=O)c3c(Cl)cccc3Cl)ccn2)nc(N)n1 [RO495]	-6.38	-5.58
O=C(/C=C/c1ccc(CN(CCO)CCc2c[nH]c3ccccc23)cc1)NO [Dacinostat]	-6.63	-5.88
Cc1cnc(NC(=O)Nc2cc(Br)c(C)cc2OC[C@@H]2CNCCO2)cn1 [Rabusertib]	-5.88	-4.88
Cc1cccc(-c2[nH]c(C(C)(C)C)nc2-c2ccc3c(c2)OCO3)n1	-4.88	-4.83
C[C@H]1[C@@H](C(=O)C[C@H]2O[C@@H]3O[C@]4(C)CC[C@H]5[C@H](C)CC[C@@H]([C@H]2C)[C@@]35OO4)O[C@@H]2O[C@]3(C)CC[C@H]4[C@H](C)CC[C@@H]1[C@@]24OO3 [BTM-2C-dimer ketone]	-6.38	-6.38
CC(=O)Oc1ccccc1C(=O)Nc1ncc([N+](=O)[O-])s1 [Nitazoxanide]	-4.72	-4.72
CN1CCC(CNc2ccc3ncc(-c4cccc(OC(F)(F)F)c4)n3n2)CC1 [SGI-1776]	-4.83	-5.03
Cc1cc(Nc2cc(CN3CCOCC3)c3nc(C)c(Cc4ccc(Cl)cc4F)n3n2)[nH]n1 [Gandotinib]	-4.73	-4.68
CC(C)(C)c1nc(-c2cccc(N[S+](=O)([O-])c3c(F)cccc3F)c2F)c(-c2ccnc(N)n2)s1 [Dabrafenib]	-4.88	-4.73
COC1CCC(C(=O)c2ccc3nc4c(cc3c2)CCCO4)CC1 (stereo not given)	-4.78	-4.78
N#Cc1c(C2CCNCC2)cc(-c2c(O)cccc2OCC2CC2)nc1N [IKK-2 Inhibitor VIII]	-4.73	-4.88
COc1cc2c(cc1-c1c(C)noc1C)ncc1[nH]c(=O)n([C@H](C)c3ccccn3)c12 [I-BET151]	-5.28	-4.93
CO[C@@H]1[C@@H](O)[C@H](O)[C@@H](n2c3c(Cl)cccc3c3c4c(c5c6cccc(Cl)c6[nH]c5c32)C(=O)NC4=O)O[C@H]1CO [Rebeccamycin]	-6.43	-6.83
COc1cc(Oc2ccnc3cc(OC)c(OC)cc23)ccc1NC(=O)NC(C)c1nccs1 (stereo not given)	-4.78	-4.73
CNC1CCC(N(Cc2cccc(-c3ccncc3)c2)C(=O)c2sc3c(F)ccc(F)c3c2Cl)CC1 (stereo not given) [Hh-Ag1.5]	-4.83	-4.73
COc1cc2ncnc(Nc3cccc(Br)c3)c2cc1OC	-6.88	-7.08
CN1\C(=C(O)/C2=C(C=C(Cl)S2)[S+]1([O-])=O)C(=O)NC3=NC=CC=C3 [Lornoxicam]	-5.43	-5.88
CN(C)CC[C@H](CSc1ccccc1)Nc1ccc([S+](=O)([O-])NC(=O)c2ccc(N3CCN(Cc4ccccc4-c4ccc(Cl)cc4)CC3)cc2)cc1[N+](=O)[O-] [ABT-737]	-5.03	-5.43
COc1cc2nc(N3CCCN(C)CC3)nc(NC3CCN(Cc4ccccc4)CC3)c2cc1OC	-4.88	-5.28
CC(=O)O/N=C1/C(=C2\C(=O)Nc3cc(Br)ccc32)Nc2ccccc21 [6-Bromoindirubin-3'-acetoxime]	-4.93	-5.13

Compound	AC50 for growth inhibition (log10 M) (SB.msgc-1)	AC50 for growth inhibition (log10 M) (SB.mhdgc-1)
Cc1c[nH]c(/C=C2\C(=O)Nc3ccccc32)c1CCC(=O)O [SU-5402]	-4.73	-4.68
CC#C[C@]1(O)CC[C@H]2[C@@H]/3CCC/4=C/C(=O)CCC4=C3[C@H](C[C@]12C)C5=CC=C(C=C5)N(C)C [Mifepristone]	-6.63	-7.23
CC1=C(C)C2=C(S1)[N]3C(=NN=C3[C@H](CC(=O)OC(C)(C)C)/N=C2/C4=CC=C(Cl)C=C4)C [JQ1]	-5.38	-5.28
CC[C@H]1CN2CCc3cc(OC)c(OC)cc3[C@@H]2C[C@@H]1C[C@H]1NCCc2cc(OC)c(OC)cc21 [Emetine]	-6.83	-5.68
Cc1cc(C(=O)N2CCN(c3cccc(Cl)c3)CC2)n(-c2ccccc2)n1 [XRP-44X]	-5.48	-6.38
C=CCNC1=C2C[C@@H](C)C[C@H](OC)[C@H](O)[C@@H](C)/C=C(\C)[C@H](OC(N)=O)[C@@H](OC)/C=C\C=C(/C)C(=O)NC(=CC1=O)C2=O [Tanespimycin]	-7.53	-7.28
COc1ccc(-c2ccc3cc(C(=O)O)ccc3c2)cc1C12CC3CC(CC(C3)C1)C2 [Adapalene]	-5.23	-5.28
CC(C)C[C@H](NC(=O)CNC(=O)c1cc(Cl)ccc1Cl)B(O)O [Ixazomib]	-7.03	-6.63
C[C@@H]1O[C@@H](O[C@H]2C[C@@H](O)[C@]3(CO)[C@H]4[C@H](O)C[C@]5(C)[C@@H](C6=CC(=O)OC6)CC[C@]5(O)[C@@H]4CC[C@]3(O)C2)[C@H](O)[C@H](O)[C@H]1O [G-Strophanthin]	-7.38	-6.98
COC(=O)Nc1ccc(-c2nc(N3CCOCC3)c3cnn(C4CCN(Cc5cccnc5)CC4)c3n2)cc1 [WYE-687]	-4.68	-7.18
O=C(C=CC#Cc1cccc(N[S+](=O)([O-])c2ccccc2)c1)NO [Oxamflatin]	-5.58	-5.28
C[C@]12CC[C@H]3[C@@H](CC[C@H]4NC(=O)\C=C/[C@]34C)[C@@H]1CC[C@@H]2C(=O)NC5=CC(=CC=C5C(F)(F)F)C(F)(F)F [Dutasteride]	-4.93	-4.78
Cc1ccc([S+](=O)([O-])Nc2cc(Cl)ccc2C(=O)Nc2nc(-c3ccccc3)cs2)cc1	-5.28	-4.68
CC(C)n1nc(-c2ccc3oc(N)nc3c2)c2c(N)ncnc21 [INK-128]	-5.48	-4.78
COc1ccccc1[C@H](c1cccc2ccccc12)[C@@](C)(C#N)C(=O)N1CCC(c2cccc(C(F)(F)F)c2)CC1	-5.48	-5.18
CN(C)CCN1C(=O)c2cccc3cc(N)cc(c23)C1=O [Amonafide]	-5.08	-5.68
Cc1cc(-c2ncc(CC(=O)Nc3ccc(-c4cnccn4)cn3)cc2C)ccn1 [LGK974]	-4.78	-4.88
COC1=C(OCCCN2CCOCC2)C=C3N=CC=C(OC4=CC=C(C=C4F)\C5=C\N=C(\NC6=CC=C(F)C=C6)N(C)C5=O)C3=C1 [AMG-51]	-4.73	-5.03
CC(=O)[C@]1(O)Cc2c(O)c3c(c(O)c2[C@@H](O[C@H]2C[C@H](N)[C@H](O)[C@H](C)O2)C1)C(=O)c1ccccc1C3=O [Idarubicin hydrochloride]	-6.63	-7.38
CSC1=CC(=CC=C1)NC2=NC3=C(C=N2)/C=C(C(=O)N3C)/C4=C(Cl)C=CC=C4Cl	-5.93	-5.78
CC(NCc1ccc2c(c1)[nH]/c(=N\C(=O)c1ccc(-c3cn[nH]c3)s1)n2CC(C)(C)O)C(C)(C)C (stereo not given)	-6.18	-5.43
NC(CSC(c1ccccc1)(c1ccccc1)c1ccccc1)C(=O)O (stereo in doubt) [S-Trityl-L-cysteine]	-5.03	-5.58
O=C1[C@H](Cc2ccc(O)cc2)N2C(=O)CCN(C(=O)NCc3ccccc3)[C@H]2CN1Cc1cccc2ccccc12 [ICG-001]	-4.88	-4.83
COc1cc2ncnc(Nc3ccc(F)c(Cl)c3)c2cc1OCCCN1CCOCC1 [Gefitinib]	-6.67	-5.57
c1ccc(CCCN2CCN(CCOC(c3ccccc3)c3ccccc3)CC2)cc1	-4.68	-4.73
